Test results published in ChEMBL document CHEMBL1131836, “Potent, easily synthesized huperzine A-tacrine hybrid acetylcholinesterase inhibitors” (Bioorg Med Chem Lett, 1999).

Key:
[1] = target: T1, Acetylcholinesterase (Rattus norvegicus, UniProt P37136)
T1 sequence (P37136 whole entry): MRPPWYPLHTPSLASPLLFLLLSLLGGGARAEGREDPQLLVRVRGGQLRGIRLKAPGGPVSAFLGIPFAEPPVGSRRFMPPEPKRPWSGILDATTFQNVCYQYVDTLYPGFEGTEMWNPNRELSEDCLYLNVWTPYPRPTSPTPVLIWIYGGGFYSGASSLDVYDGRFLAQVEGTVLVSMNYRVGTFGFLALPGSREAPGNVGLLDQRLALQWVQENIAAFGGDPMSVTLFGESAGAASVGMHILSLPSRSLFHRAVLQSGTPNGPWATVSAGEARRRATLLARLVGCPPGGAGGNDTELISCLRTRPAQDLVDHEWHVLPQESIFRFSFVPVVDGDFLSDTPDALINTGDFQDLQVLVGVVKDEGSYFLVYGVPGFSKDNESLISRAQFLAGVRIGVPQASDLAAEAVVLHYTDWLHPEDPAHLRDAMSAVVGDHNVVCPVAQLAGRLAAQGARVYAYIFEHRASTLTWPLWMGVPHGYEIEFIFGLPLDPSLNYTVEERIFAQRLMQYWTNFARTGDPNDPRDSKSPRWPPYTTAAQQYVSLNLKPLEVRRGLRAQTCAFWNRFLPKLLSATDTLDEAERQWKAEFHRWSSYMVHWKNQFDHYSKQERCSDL
Description: Inhibitory potency against acetylcholinesterase (AChE) of rat cortex homogenate with ethopropazine as BChE inhibitor

[2] = target: Butyrylcholinesterase (Rattus norvegicus, UniProt Q9JKC1)
Sequence of Butyrylcholinesterase (Q9JKC1 whole entry): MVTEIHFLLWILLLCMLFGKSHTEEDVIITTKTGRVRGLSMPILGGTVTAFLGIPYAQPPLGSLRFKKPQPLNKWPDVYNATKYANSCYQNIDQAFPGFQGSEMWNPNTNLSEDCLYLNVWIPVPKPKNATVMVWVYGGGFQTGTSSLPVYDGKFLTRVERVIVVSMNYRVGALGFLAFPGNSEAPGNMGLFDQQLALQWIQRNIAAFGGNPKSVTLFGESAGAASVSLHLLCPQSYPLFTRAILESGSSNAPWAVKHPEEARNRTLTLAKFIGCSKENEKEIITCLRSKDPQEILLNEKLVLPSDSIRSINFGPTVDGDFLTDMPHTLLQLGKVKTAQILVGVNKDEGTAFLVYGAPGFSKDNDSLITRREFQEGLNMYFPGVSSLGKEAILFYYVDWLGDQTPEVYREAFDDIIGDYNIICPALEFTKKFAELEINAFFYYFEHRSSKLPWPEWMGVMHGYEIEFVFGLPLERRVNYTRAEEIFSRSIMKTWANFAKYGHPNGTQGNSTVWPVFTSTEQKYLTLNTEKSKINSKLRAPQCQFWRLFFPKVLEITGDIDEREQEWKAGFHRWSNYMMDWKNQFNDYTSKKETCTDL
Description: Inhibitory potency against rat serum Butyrylcholinesterase with BW284c51 as AChE inhibitor

SMILES	IC50 [1] [nM]	IC50 [2] [nM]
Oc1ccc2c(n1)CCCC2NCCCCCCNc1c2c(nc3ccccc13)CCCC2 (racemic)	37.1	223
Oc1ccc2c(n1)CCCC2NCCCCNc1c2c(nc3ccccc13)CCCC2 (racemic)	42.6	228
Oc1ccc2c(n1)CCCC2NCCCCCCCNc1c2c(nc3ccccc13)CCCC2 (racemic)	53.1	233
Oc1ccc2c(n1)CCCC2NCCCCCNc1c2c(nc3ccccc13)CCCC2 (racemic)	122	220
Oc1ccc2c(n1)CCCC2NCCCCCCCCCNc1c2c(nc3ccccc13)CCCC2 (racemic)	36.3	150
O=c1ccc2c([nH]1)CCCC2NCCCCCCCCCCNc1c2c(nc3ccccc13)CCCC2 (racemic)		81.5
O=c1ccc2c([nH]1)CCCC2NCCCCCCCCCCCCNc1c2c(nc3ccccc13)CCCC2 (racemic)	112	434
O=c1ccc2c([nH]1)CCCC2NCCCCCCCCNc1c2c(nc3ccccc13)CCCC2 (racemic)	26.2	166
